Data reported in PubChem BioAssay AID504555 (Johns Hopkins Ion Channel Center, 2011).
pIC50: −log10 of the molar value. Active and inactive are the calls of the source.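 Rule for the calls: active = dose dependent inhibition of hERG heart potassium channel current within the tested dose range; inactive = the rest.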

Columns and labels:
[1] = target: Voltage-gated inwardly rectifying potassium channel KCNH2 (Homo sapiens) (UniProt Q12809); assay: hERG potassium channel inhibition, SAR follow-up, selectivity assay for Kir2.1 inhibitor project, CHO cells, automated electrophysiology (AID 504555); conditions: automated patch clamp, tail current
[2] = target: Inward rectifier potassium channel 2 (Mus musculus) (UniProt P35561); assay: as above; conditions: automated patch clamp, tail current, at 30 µM (top of the series)
Inward rectifier potassium channel 2 (Mus musculus), sequence (P35561 whole entry, looked up): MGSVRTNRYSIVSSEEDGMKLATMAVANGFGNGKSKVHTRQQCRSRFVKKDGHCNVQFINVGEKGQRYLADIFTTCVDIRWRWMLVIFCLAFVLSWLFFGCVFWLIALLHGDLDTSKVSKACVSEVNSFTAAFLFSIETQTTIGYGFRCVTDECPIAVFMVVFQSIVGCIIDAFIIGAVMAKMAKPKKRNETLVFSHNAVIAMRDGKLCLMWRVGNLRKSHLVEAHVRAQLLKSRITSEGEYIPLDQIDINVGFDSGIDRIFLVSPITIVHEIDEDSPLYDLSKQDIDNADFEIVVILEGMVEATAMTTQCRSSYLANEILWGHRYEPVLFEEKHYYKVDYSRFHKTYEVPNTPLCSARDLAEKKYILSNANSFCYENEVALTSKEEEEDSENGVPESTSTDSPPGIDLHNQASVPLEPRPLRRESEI

Voltage-gated inwardly rectifying potassium channel KCNH2 (Homo sapiens), sequence (Q12809 whole entry, looked up): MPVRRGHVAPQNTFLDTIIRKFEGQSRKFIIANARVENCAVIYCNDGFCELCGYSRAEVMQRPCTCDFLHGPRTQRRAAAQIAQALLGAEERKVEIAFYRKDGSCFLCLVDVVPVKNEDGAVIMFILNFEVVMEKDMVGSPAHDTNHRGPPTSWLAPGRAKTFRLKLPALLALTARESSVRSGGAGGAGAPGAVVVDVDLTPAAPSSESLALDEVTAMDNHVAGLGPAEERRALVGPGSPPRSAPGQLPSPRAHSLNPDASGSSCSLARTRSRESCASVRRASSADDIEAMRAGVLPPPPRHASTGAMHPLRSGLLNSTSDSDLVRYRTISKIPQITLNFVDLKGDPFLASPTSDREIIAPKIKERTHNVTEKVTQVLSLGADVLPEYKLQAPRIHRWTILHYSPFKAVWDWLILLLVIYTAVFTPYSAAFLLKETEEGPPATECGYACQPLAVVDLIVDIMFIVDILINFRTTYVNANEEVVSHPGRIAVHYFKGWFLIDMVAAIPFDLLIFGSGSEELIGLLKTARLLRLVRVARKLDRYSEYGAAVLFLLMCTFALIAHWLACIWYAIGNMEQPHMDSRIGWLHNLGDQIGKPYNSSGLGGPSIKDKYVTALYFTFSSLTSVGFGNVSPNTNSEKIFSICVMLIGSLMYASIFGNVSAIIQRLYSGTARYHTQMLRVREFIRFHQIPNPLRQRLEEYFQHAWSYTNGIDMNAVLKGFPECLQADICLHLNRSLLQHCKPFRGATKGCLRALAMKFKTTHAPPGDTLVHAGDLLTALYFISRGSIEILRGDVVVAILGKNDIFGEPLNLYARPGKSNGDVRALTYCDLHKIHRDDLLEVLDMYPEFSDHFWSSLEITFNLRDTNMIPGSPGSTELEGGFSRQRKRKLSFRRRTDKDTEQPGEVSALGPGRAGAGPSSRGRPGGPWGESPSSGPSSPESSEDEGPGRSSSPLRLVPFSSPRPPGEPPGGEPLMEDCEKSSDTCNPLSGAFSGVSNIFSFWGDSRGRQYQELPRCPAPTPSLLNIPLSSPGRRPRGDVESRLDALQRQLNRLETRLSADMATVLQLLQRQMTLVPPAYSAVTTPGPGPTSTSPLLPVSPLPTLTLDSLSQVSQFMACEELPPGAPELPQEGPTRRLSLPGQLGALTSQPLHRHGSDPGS

Row | Compound | pIC50 [1] | current change, negative = inhibition [2]
1 | CC(O)CNCCCOc1cccc(Oc2ccccc2)c1 (centres undefined) | 5.16 | –
2 | c1ccc(COc2ccc(OCCCNC3CCCC3)cc2)cc1 | 5.66 | –
3 | Cc1ccc2nc(N3CCN(CCO)CC3)nc(-c3ccccc3)c2c1 | 5.54 | –
4 | Cc1ccc(C)c(OCCCNCc2ccccc2)c1 | 4.71 | –
5 | C[C@@H](NS(=O)(=O)c1cccc(Br)c1)c1ccccc1 | 4.75 | –
6 | c1ccc(CNc2c3ccccc3nc3ccccc23)cc1 | 6.36 | –
7 | C[C@@H](NS(=O)(=O)c1ccc(Cl)cc1)c1ccccc1 | 4.71 | –
8 | C[C@H](NS(=O)(=O)c1ccc(Br)cc1)c1ccccc1 | 4.75 | –
9 | O=S(=O)(c1ccc(F)cc1)N1CCCc2ccccc21 | – | inactive
10 | Cc1ccc2nc(NCc3ccccc3)[nH]c2c1 | 4.89 | –
11 | Cc1ccc(S(=O)(=O)N[C@@H](C)c2ccccc2)cc1 | 4.56 | –
12 | C[C@H](NS(=O)(=O)c1cccc(Br)c1)c1ccccc1 | 4.99 | –
13 | Cc1ccc(Nc2cc(C)nc3c(C)cccc23)cc1 | 5.63 | –
14 | Cc1noc(C)c1COC(=O)CCN1c2ccccc2Sc2ccccc21 | 4.54 | –
